According to patent publication US20260207720A1, “COMPOSITIONS AND METHODS FOR TREATING FUNGAL INFECTIONS” (MUCPharm Pty Ltd, priority 2022, published 2026):
Converted amounts (≈) assume the structure as drawn.

Experiments:
[1] = system: Mucormycete group (Rhizopus microspores, Fusarium solani cx, Rhizopus arrhizus and Candida krusei QC); experiment: Susceptibility assay of bromelain and acetylcysteine alone or together (Example 1); format: cell-based; details: in isolation, R. microsporus, read-out: MIC required to inhibit Mucormycete growth
Method: Unless otherwise described, fungal cultures were grown on potato dextrose agar plates at 35° C. until mature (appearance of conidia) and used to prepare suspensions in sterile water. Suspensions were diluted in RPMI 1:60. These suspensions were then added in equal volume to solutions containing the candidate species described above and incubated at 35° C. for 24 hr. Plates were then analysed for fungal growth inhibition and MIC values determined. […] Initial tests were conducted on one strain of Rhizopus microsporus, one strain of Rhizopus arrhizus and one strain of Candida krusei QC, all sourced clinically.

[2] = system: Aspergillus fumigatus (ATCC strain 13697); experiment: Broth dilution susceptibility test, MIC and percent growth (Example 7); format: cell-based
Method: A. Preparation of inoculum: • 1. Candida glabrata was grown on Sabouraud dextrose agar (SDA) at 37° C. for 24-48 hrs. • 2. Following this, 5 colonies of 1 mm diameter were picked and suspended in 5 mL sterile saline (0.9% saline) and vortexed for 15 seconds. • 3. Working suspension is prepared as a 1:100 dilution from stock suspension with RPMI 1640 culture medium. • 4. The cell density is adjusted with a spectrophotometer to the transmittance produced by a 0.5 McFarland standard (0.08 to 0.1) OD at 625 nm wavelength.
• 1. For Bromelain, a stock concentration of 1 mg/ml Bromelain solution was prepared in RPMI media and diluted to test concentrations of 62.4, 31.2, 15.6 and 7.8 μg/ml in RPMI 1640 media. • 2. Acetylcysteine stock concentration is 200 mg/ml, diluted to 40, 20, 10, and 5 mg/ml concentrations in RPMI 1640 medium. • 3. These concentrations are prepared at 2× of the required concentrations in the final assay plate.
Antifungal stock concentrations are as follows— • 1. Amphotericin B, Stock concentration: 250 μg/ml in water. • 2. Posaconazole, Original concentration: 300 mg in 16.7 ml, Working stock concentration: 1 mg/ml in DMSO. • 3. Fluconazole, Original concentration: 100 mg in 50 ml, Working stock concentration: 1 mg/ml in DMSO. • 4. The final concentration was prepared in RPMI 1640 media and concentrations range was 0.01-0.5 μg/mL for amphotericin B, 0.01-2 μg/mL for posaconazole and 0.01-64 μg/mL for fluconazole. • 5. These concentrations were prepared at 2× of the required concentrations in the final assay plate.
• 1. Wells of the 96-well plates were inoculated with appropriate concentrations and volumes of drugs. • 2. Sterility control and growth controls are included in each plate. • 3. Each 96-well plate (except the control wells) contains 100 μL of double strength (twice the final antifungal drug) concentrations. • 4. 100 μL of the fungal suspension is added to 96-well plates (except the sterility control wells). • 5. The growth control wells contained 100 μL of sterile drug-free medium and 100 μL of inoculum suspension, while the sterility control wells contained 200 μl of sterile drug-free medium. • 6. Plates are then incubated at 37° C. and read at 625,430, and 530 nm wavelengths. • 7. Data from 24 hours and absorbance at 625 nm were used for analysis.
These experiments were conducted to determine the efficacy of BromAc alone and in combination with existing antifungal drugs against Aspergillus fumigatus (ATCC strain 13697).
The method used in these experiments is essentially the same as that described above in Example 5. In these experiments, however, echinocandins such as […] Caspofungin are used in place of the azole antifungals described in earlier examples.

MIC [1] | Compound | MIC ([2]; FIGS. 13a, 14a) | effect at lower concentrations (in words) ([2]; Voriconazole 1 μg/ml and 0.5 μg/ml, Caspofungin 0.25 μg/ml and 0.125 μg/ml)
10 µg/mL (≈ 61.3 µM) | CC(=O)N[C@@H](CS)C(=O)O [Acetylcysteine, N-acetylcysteine] |  | 
 | CC[C@H](C)C[C@H](C)CCCCCCCCC(=O)N[C@H]1C[C@@H](O)[C@@H](NCCN)NC(=O)[C@@H]2[C@@H](O)CCN2C(=O)[C@H]([C@H](O)CCN)NC(=O)[C@H]([C@H](O)[C@@H](O)c2ccc(O)cc2)NC(=O)[C@@H]2C[C@@H](O)CN2C(=O)[C@H]([C@@H](C)O)NC1=O [Caspofungin] | > 1 µg/mL | almost no inhibitory effect
